Measurements: US20210038559A1, “CANNABINOIDS AND DERIVATIVES FOR PROMOTING IMMUNOGENICITY OF TUMOR AND INFECTED CELLS” (priority 2018, published 2021)

Test system: MHC-I expression by COLO 205 cells
Assay: cells
Format: cell-based, human
Settings: not given
Procedure: A panel of synthetic cannabinoids (Cayman Chemical, #9002891) was tested for MHC class I-inducing capability in COLO 205 cells as described above. COLO 205 cells were treated with the compounds at a concentration of 35 μM and evaluated for cell surface MHC class I expression after 48 hours. Cells were harvested, stained with MHC-I mAb W6/32 (Thermo Fisher). MHC-I expression was determined by flow cytometry.

Q: Which “Induction Fold” value does the source give for `C#CCCCCCCCCCNC(=O)Oc1cccc(-c2cccc(C(N)=O)c2)c1` [Example 182, 3′-carbamoyl-biphenyl-3-yl-undecynecarbamate] here?
A: The value was 1.93 Fold.

Same assay, conditions: Homo sapiens, COLO 205, 48 h, MHC-I expression, COLO 205 cells, compounds at 35 μM, 48 hours, flow cytometry (W6/32); read-out: Induction Fold

Q: `CC(C)[C@H](NC(=O)c1nn(CCCCCCl)c2ccccc12)C(N)=O` [Example 170, N-[(1S)-1-(aminocarbonyl)-2-methylpropyl]-1-(5-chloropentyl)-1H-indazole-3-carboxamide] was tested. Which fold induction at 35 µM did it give?
A: Its fold induction at 35 µM is 2.01.

Q: How did the fold induction at 35 µM turn out when `CCCCCn1nc(C(=O)Oc2cccc3ccccc23)c2ccccc21` [Example 171, naphthalen-1-yl 1-pentyl-1H-indazole-3-carboxylate] was run?
A: The fold induction at 35 µM was 1.99.

Q: Which fold induction at 35 µM does the source give for `CC(C)[C@H](NC(=O)c1nn(Cc2ccc(F)cc2)c2ccccc12)C(N)=O` [Example 172, N-[(1S)-1-(aminocarbonyl)-2-methylpropyl]-1-[(4-fluorophenyl)methyl]-1H-indazole-3-carboxamide] here?
A: Its fold induction at 35 µM is 1.99.

Q: With `CCC(F)CCCn1cc(C(=O)c2cccc3ccccc23)c2ccccc21` (stereo not drawn) [Example 173, (1-(4-fluorohexyl)-1H-indol-3-yl)(naphthalen-1-yl)methanone] as the compound, how does the fold induction at 35 µM read?
A: Its fold induction at 35 µM is 1.98.

Q: `CCC(F)CCn1cc(C(=O)c2ccc(C)c3ccccc23)c2ccccc21` (stereo not drawn) [Example 174, (1-(3-fluoropentyl)-1H-indol-3-yl)(4-methylnaphthalen-1-yl)methanone] was tested. Which fold induction at 35 µM did it give?
A: Its fold induction at 35 µM is 1.96.

Q: With `CCCCCn1cc(C(=O)c2cccc3ccccc23)c2ccc(OC)cc21` [Example 175, (6-methoxy-1-pentyl-1H-indol-3-yl)(naphthalen-1-yl)-methanone] as the compound, how does the fold induction at 35 µM read?
A: The fold induction at 35 µM was 1.95.

Q: `CCCC(F)CCn1cc(C(=O)c2cccc3ccccc23)c2ccccc21` (stereo not drawn) [Example 176, (1-(3-fluorohexyl)-1H-indol-3-yl)(naphthalen-1-yl)methanone] was tested. Which fold induction at 35 µM did it give?
A: Its fold induction at 35 µM is 1.95.

Q: With `O=C(c1cccc2ccccc12)c1cn(CCCCCCl)c2ccccc12` [Example 177, (1-(5-chloropentyl)-1H-indol-3-yl)(naphthalen-1-yl)methanone] as the compound, how does the fold induction at 35 µM read?
A: The fold induction at 35 µM was 1.94.

Q: `CCCCCn1cccc1C(=O)c1cccc2ccccc12` [Example 178, naphthalen-1-yl(1-pentyl-1H-pyrrol-2-yl)methanone] was tested. Which fold induction at 35 µM did it give?
A: Its fold induction at 35 µM is 1.94.

Q: With `CCCCCn1cc(C(=O)c2ccc(CC)c3ccccc23)c2ccccc21` [Example 180, (4-ethyl-1-naphthalenyl)(1-pentyl-1H-indol-3-yl)-methanone] as the compound, how does the fold induction at 35 µM read?
A: Its fold induction at 35 µM is 1.93.

Q: Which fold induction at 35 µM does the source give for `CCCCCn1cc(C(=O)Cc2ccc(C)cc2)c2ccccc21` [Example 181, 2-(4-methylphenyl)-1-(1-pentyl-1H-indol-3-yl)-ethanone] here?
A: The fold induction at 35 µM was 1.93.

Q: With `O=C(Nc1cccc2ccccc12)c1nn(CCCCCF)c2ccccc12` [Example 184, 1-(5-fluoropentyl)-N-1-naphthalenyl-1H-indazole-3-carboxamide] as the compound, how does the fold induction at 35 µM read?
A: The fold induction at 35 µM was 1.9.

Q: For `CC1(C)C(C(=O)c2nn(CCCCCF)c3ccccc23)C1(C)C` [Example 185, (1-(5-fluoropentyl)-1H-indazol-3-yl)(2,2,3,3-tetramethylcyclopropyl)methanone], which fold induction at 35 µM is on record?
A: Its fold induction at 35 µM is 1.9.

Q: With `CC(C)(C)C(NC(=O)c1cn(Cc2ccccc2)c2ccccc12)C(N)=O` (stereo not drawn) [Example 186, N-(1-amino-3,3-dimethyl-1-oxobutan-2-yl)-1-benzyl-1H-indole-3-carboxamide] as the compound, how does the fold induction at 35 µM read?
A: Its fold induction at 35 µM is 1.9.

Q: With `CCCC(C)n1cc(C(=O)c2cccc3ccccc23)c2ccccc21` (stereo not drawn) [Example 187, naphthalen-1-yl(1-(pentan-2-yl)-1H-indol-3-yl)methanone] as the compound, how does the fold induction at 35 µM read?
A: The fold induction at 35 µM was 1.9.

Same assay, conditions: MHC-I expression, COLO 205 cells, compounds at 35 μM, 48 hours, flow cytometry (W6/32)

Q: `COC(=O)[C@H](NC(=O)c1nn(CCCCCF)c2ccccc12)C(C)(C)C` [Example 179, N-[[1-(5-fluoropentyl)-1H-indazol-3-yl]carbonyl]-3-methyl-D-valine, methyl ester] was tested. Which “Induction Fold” value did it give?
A: Its value is 1.94 Fold.

Q: Which “Induction Fold” value does the source give for `CCCCCn1nc(C(=O)N[C@H](C(=O)OC)C(C)C)c2ccccc21` [Example 183, N-[(1-pentyl-1H-indazol-3-yl)carbonyl]-1-valine, methyl ester] here?
A: The value was 1.91 Fold.
